Laboratory results taken from US20250051376A1, “BENZIMIDAZOLE DERIVATIVE COMPOUNDS AND USE THEREOF” (PHARMGEN SCIENCE, INC., priority 2021, published 2025).

Columns and labels:
physchem = settings: pH 6.8, aqueous buffer, thermodynamic from solid
gastric acid secretion [1] = assay: Gastric acid releasing suppression ability test by oral administration (pylorus-ligated, histamine-stimulated rats); assay type: in vivo
Protocol: A week before the test, test animals (rats) were purchased and acclimatized. After acclimatization, food was removed the day before the test and fasting was performed for 24 hours using a fasting plate. The weight of each individual was measured, weight ranking was sequentially assigned to each group, and the average value of each group was randomly distributed so that the average value was evenly distributed. Test material (the embodiment compound and comparison compound) were used by dissolving them in 0.5% methylcellulose solution, and tegoprazan was used as a comparative compound. The prepared test material was orally administered to test animals at an amount of 3 mg/5 ml/kg, and 30 minutes later, inhalation anesthesia (3% isoflurane) was performed for 3 minutes using an inhalation anesthesia machine. After making a minimal incision in the upper abdomen about 1 cm below the left side of the sternum of an anesthetized test animal, the stomach was exposed, and the pyloric ring, which is the connection between the stomach and the duodenum, was ligated. The stomach and duodenum were restored to their original positions, and the laparotomy site was sutured well with surgical staplers. Histamine (7.5 mg/2.5 mL/head) was slowly administered subcutaneously to the back of the neck to promote gastric acid secretion. 3 hours after the surgery, the experimental animals were anesthetized with isoflurane and the stomach was removed through laparotomy. Gastric fluid obtained from the extracted stomach was transferred to a 15 ml conical tube, centrifuged at 5,000 rpm for 10 minutes, and only the supernatant was separated. 0.2 mL of the separated gastric fluid was diluted in 24.8 mL of distilled water to make a total dilution of 25 mL, and then 0.01N NaOH was added in small amounts to titrate until the pH reached 7. Efficacy was evaluated by calculating total acidity by combining the amount of gastric fluid and the amount of 0.01N NaOH required for titration.

gastric acid secretion [2] = assay: Gastric acid releasing suppression ability test by administration in the duodenum (pylorus-ligated, histamine-stimulated rats); assay type: in vivo; settings: for gastric acid releasing suppression ability (% INH, Mean ± SD): intraduodenal 1 mg/5 ml/kg in 0.5% methylcellulose, pylorus ligation, histamine s.c., gastric fluid collected 3 hours after surgery
Protocol: A week before the test, test animals (rats) were purchased and acclimatized. After acclimatization, food was removed the day before the test and fasting was performed for 24 hours using a fasting plate. The weight of each individual was measured, weight ranking was sequentially assigned to each group, and the average value of each group was randomly distributed so that the average value was evenly distributed. Test material (the embodiment compound and comparison compound) were used by dissolving them in 0.5% methylcellulose solution, and tegoprazan was used as a comparative compound. Experimental animals were subjected to inhalation anesthesia (3% isoflurane) for 3 minutes using an inhalation anesthesia machine. After making a minimal incision in the upper abdomen about 1 cm below the left side of the sternum of an anesthetized test animal, the stomach was exposed, and the pyloric ring, which is the connection between the stomach and the duodenum, was ligated. The prepared drug was administered into the duodenum in an amount of 1 mg/5 ml/kg, the stomach and duodenum were restored to their original positions, and the laparotomy site was sutured well with a surgical stapler. Histamine (7.5 mg/2.5 mL/head) was slowly administered subcutaneously to the back of the neck to promote gastric acid secretion. 3 hours after the surgery, the experimental animals were anesthetized with isoflurane and the stomach was removed through laparotomy. Gastric fluid obtained from the extracted stomach was transferred to a 15 ml conical tube, centrifuged at 5,000 rpm for 10 minutes, and only the supernatant was separated. 0.2 mL of the separated gastric fluid was diluted in 24.8 mL of distilled water to make a total dilution of 25 mL, and then 0.01N NaOH was added in small amounts to titrate until the pH reached 7. Efficacy was evaluated by calculating total acidity by combining the amount of gastric fluid and the amount of 0.01N NaOH required for titration.

[3] = rats, oral 3 mg/5 ml/kg in 0.5% methylcellulose, pylorus ligation 30 min after dosing, histamine s.c., gastric fluid collected 3 hours after surgery

Molecule | improved water solubility (pH 6.8) compared to the comparative compound [times] | solubility at 31 min (physchem) [µg/mL] | gastric acid releasing suppression ability in the gastric acid secretion animal model (in words) (gastric acid secretion [1]; rats, oral 3 mg/5 ml/kg) | gastric acid releasing suppression ability (% INH, Mean ± SD) (gastric acid secretion [1]; [3]) [% INH] | gastric acid releasing suppression ability (% INH, Mean ± SD) (gastric acid secretion [1]; rat, in vivo) [% INH] | ability to inhibit gastric acid secretion compared to the comparative compound (in words) (gastric acid secretion [2]; drug administered to the duodenum with a neutral pH, 1 mg/5 ml/kg) | gastric acid releasing suppression ability (% INH, Mean ± SD) (gastric acid secretion [2]) [% INH] | gastric acid releasing suppression ability in the gastric acid secretion animal model (in words) (gastric acid secretion [1]; rat, in vivo, po)
sodium(S)-tert-butyl ((4-((5,7-difluorochroman-4-yl)oxy)-6-(dimethylcarbamoyl)-2-methyl-1H-benzo (d) imidazol-1-yl)methyl) phosphate) [Embodiment 5] | – | – | – | – | 12.7 ± 10.9 | – | – | –
sodium(S)-(4-((5,7-difluorochroman-4-yl)oxy)-6-(dimethylcarbamoyl)-2-methyl-1H-benzo (d) imidazol-1-yl)methyl phosphate) [Embodiment 6] | – | – | – | – | 92.8 ± 4.8 | improved ability to inhibit gastric acid secretion compared to the comparative compound | 43.7 ± 8.7 | powerful gastric acid releasing suppression ability
Cc1nc2cc(C(=O)N(C)C)cc(O[C@H]3CCOc4cc(F)cc(F)c43)c2[nH]1 [Comparison compound, tegoprazan, reference compound] | – | – | – | 100 ± 0.0 | – | – | 29.8 ± 9.1 | –

Second part, led by results:

improved water solubility (pH 6.8) compared to the comparative compound [times] | solubility at 31 min (physchem) [µg/mL] | Molecule | gastric acid releasing suppression ability in the gastric acid secretion animal model (in words) (gastric acid secretion [1]; rats, oral 3 mg/5 ml/kg) | gastric acid releasing suppression ability (% INH, Mean ± SD) (gastric acid secretion [1]; [3]) [% INH] | gastric acid releasing suppression ability (% INH, Mean ± SD) (gastric acid secretion [1]; rat, in vivo) [% INH] | ability to inhibit gastric acid secretion compared to the comparative compound (in words) (gastric acid secretion [2]; drug administered to the duodenum with a neutral pH, 1 mg/5 ml/kg) | gastric acid releasing suppression ability (% INH, Mean ± SD) (gastric acid secretion [2]) [% INH] | gastric acid releasing suppression ability in the gastric acid secretion animal model (in words) (gastric acid secretion [1]; rat, in vivo, po)
128 | 2560 | Cc1nc2c(O[C@H]3CCOc4cc(F)cc(F)c43)cc(C(=O)N(C)C)cc2n1COP(=O)(O)O [Embodiment 4, (S)-(4-((5,7-difluorochroman-4-yl)oxy)-6-(dimethylcarbamoyl)-2-methyl-1H-benzo[d]imidazol-1-yl)methyl dihydrogen phosphate] | powerful gastric acid releasing suppression ability | 100.0 ± 0.0 | – | – | – | –
256 | 5120 | Cc1nc2c(O[C@H]3CCOc4cc(F)cc(F)c43)cc(C(=O)N(C)C)cc2n1COP(=O)(OC(C)(C)C)OC(C)(C)C [Embodiment 2, (S)-di-tert-butyl ((4-((5,7-difluorochroman-4-yl)oxy)-6-(dimethylcarbamoyl)-2-methyl-1H-benzo[d]imidazol-1-yl)methyl) phosphate] | – | 26.8 ± 9.2 | – | – | – | –
128 | 2560 | Cc1nc2c(O[C@H]3CCOc4cc(F)cc(F)c43)cc(C(=O)N(C)C)cc2n1COP(=O)(O)OC(C)(C)C [Embodiment 3, tert-butyl ((4-(((S)-5,7-difluorochroman-4-yl)oxy)-6-(dimethylcarbamoyl)-2-methyl-1H-benzo (d)imidazol-1-yl)methyl) hydrogen phosphate] | – | 23.9 ± 3.3 | – | – | – | –
